Source: patent publication US8178077B2, “Drug development target protein and target gene, and method of screening” (Reverse Proteomics Research Institute Co., Ltd., priority 2004, dated 2012)

Columns and labels:
[1] = target: T1, FLJ39196 clone-derived protein (human neurocalcin δ) (Homo sapiens, UniProt P61601); experiment: SEC/MS interaction analysis (size exclusion spin column and mass analysis) with FLJ39196 clone-derived protein; format: binding
T1 construct: A human full-length cDNA clone was expressed as a protein with an N-terminal His tag; His tag (N); made in house; host or cells: Escherichia coli BL21star(DE3)pLysS (pDEST17 Gateway expression plasmid)
Method in brief: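 Unmodified, non-immobilized protein was mixed with compound and separated by size exclusion on 384-well Unifilter 100 spin columns packed with 10 μL Bio-Gel P6. The protein-fraction filtrate was collected in 50% acetonitrile, deproteinized, concentrated, redissolved in 10 μL of 50% methanol, and 2 μL was injected for ESI mass analysis of compound spectral intensity.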

[2] = target: T2, FLJ20589 clone-derived protein (human hippocalcin-like protein 1, VILIP-3) (Homo sapiens, UniProt P37235); experiment: SEC/MS interaction analysis (size exclusion spin column and mass analysis) with FLJ20589 clone-derived protein; format: binding
T2 construct: A human full-length cDNA clone was expressed as a protein with an N-terminal His tag; His tag (N); made in house; host or cells: Escherichia coli BL21star(DE3)pLysS (pDEST17 Gateway expression plasmid)

[3] = protein 0 μM (protein-free reference), compound 1 μM
[4] = protein 0 μM (protein-free reference), compound 10 μM
[5] = protein 0 μM (protein-free reference), compound 100 μM
[6] = protein 0 μM (protein-free reference), compound 250 μM
[7] = protein 23.75 μM, compound 1 μM
[8] = protein 23.75 μM, compound 10 μM
[9] = protein 23.75 μM, compound 100 μM
[10] = protein 23.75 μM, compound 250 μM
[11] = protein 47.5 μM, compound 10 μM
[12] = protein 47.5 μM, compound 100 μM
[13] = protein 47.5 μM, compound 250 μM

SMILES	spectral intensity of the compound in the SEC spin column filtrate (protein fraction) [1, 3]	spectral intensity of the compound in the SEC spin column filtrate (protein fraction) [1, 4]	spectral intensity of the compound in the SEC spin column filtrate (protein fraction) [1, 5]	spectral intensity of the compound in the SEC spin column filtrate (protein fraction) [1, 6]	spectral intensity of the compound in the SEC spin column filtrate (protein fraction) [1, 7]	spectral intensity of the compound in the SEC spin column filtrate (protein fraction) [1, 8]	spectral intensity of the compound in the SEC spin column filtrate (protein fraction) [1, 9]	spectral intensity of the compound in the SEC spin column filtrate (protein fraction) [1, 10]	spectral intensity of the compound in the SEC spin column filtrate (protein fraction) ([1]; protein 47.5 μM, compound 1 μM)	spectral intensity of the compound in the SEC spin column filtrate (protein fraction) [1, 11]	spectral intensity of the compound in the SEC spin column filtrate (protein fraction) [1, 12]	spectral intensity of the compound in the SEC spin column filtrate (protein fraction) [1, 13]	spectral intensity of the compound in the SEC spin column filtrate (protein fraction) [2, 3]	spectral intensity of the compound in the SEC spin column filtrate (protein fraction) [2, 4]	spectral intensity of the compound in the SEC spin column filtrate (protein fraction) [2, 5]	spectral intensity of the compound in the SEC spin column filtrate (protein fraction) [2, 6]	spectral intensity of the compound in the SEC spin column filtrate (protein fraction) [2, 7]	spectral intensity of the compound in the SEC spin column filtrate (protein fraction) [2, 8]	spectral intensity of the compound in the SEC spin column filtrate (protein fraction) [2, 9]	spectral intensity of the compound in the SEC spin column filtrate (protein fraction) [2, 10]	further results
CN1CCN(CCCN2c3ccccc3Sc3ccc(C(F)(F)F)cc32)CC1 [Trifluoperazine]	6645734	7904072	204390563	632906281	7580781	40058178	293702761	1292987653	7231665	14142338	5846308	2293500744	1499445	1420853	2266965	4146130	469062	893634	41947038	57062370	spectral intensity of the compound in the SEC spin column filtrate (protein fraction) ([2]; protein 47.5 μM, compound 1 μM): 459554; spectral intensity of the compound in the SEC spin column filtrate (protein fraction) [2, 11]: 2953415; spectral intensity of the compound in the SEC spin column filtrate (protein fraction) [2, 12]: 67433540; spectral intensity of the compound in the SEC spin column filtrate (protein fraction) [2, 13]: 116228047
O=C1CN=C(c2ccccc2)c2cc(Cl)ccc2N1CC1CC1 [prazepam]	45379226	21988256	130413200	139016191	38417587	46660512	258681345	517983224	26479402	67670753	264065408	706383483	563508	752185	5911478	8158416	372254	1912944	27662748	53037838	spectral intensity of the compound in the SEC spin column filtrate (protein fraction) ([2]; protein 47.5 μM, compound 1 μM): 603084; spectral intensity of the compound in the SEC spin column filtrate (protein fraction) [2, 11]: 8279573; spectral intensity of the compound in the SEC spin column filtrate (protein fraction) [2, 12]: 67316791; spectral intensity of the compound in the SEC spin column filtrate (protein fraction) [2, 13]: 87274751
